Where two headings read alike, the source gives them in different places.
Key:
plasma neurohormones = plasma neurohormones with chronic rapid pacing (Table III); assay type: in vivo, pig; conditions: Rapid Pacing + MMPi, 20 mg/kg QD, 3 weeks, mean ± SEM
Description: Following steady-state LV function measurements, 35 cc of blood was drawn from the arterial access port into chilled tubes containing EDTA (1.5 mg/mL). The blood samples were immediately centrifuged (2000 g, 10 min, 4° C.), the plasma decanted into separate tubes, frozen in a dry ice/methanol bath, and stored at -80° C. until the time of assay.
The plasma samples were assayed for renin activity, catecholamine levels, and plasma MMP inhibition levels. Plasma renin activity (PRA) was determined by computing angiotensin I production using a radioimmunoassay (NEA-026, New England Nuclear, Boston, Mass.). Plasma norepinephrine was measured using high-performance liquid chromatography and normalized to pg/mL of plasma. All assays were performed in duplicate.
For comparisons of neurohormonal profiles, the Student-Neuman-Kuells test was employed. […] Values of p<0.05 were considered to be statistically significant.

[1] = tested on: MI-rat (coronary artery ligation) heart failure model; experiment: ischemic model of heart failure (MI-rat), Compound A dose-response; assay type: in vivo; parameters: LVV at LVEDP: unit not given here; conditions: for LVEDP / LVV at LVEDP / dp/dt MAX: 6 weeks
MMPs = experiment: MMP inhibition at trough plasma level in pigs; conditions: 20 mg/kg/day oral
[2] = tested on: pacing-induced heart failure model; experiment: pacing-induced heart failure in pigs, first study (echocardiography); assay type: in vivo, pig
Description: A study was performed in four pigs in which atrial pacemakers were implanted. Heart failure was induced by chronic rapid pacing (i.e., increasing heart rate to 240 beats per minute). Echocardiographic assessment of cardiac function, chamber dimensions, and structure was performed prior to the initiation of pacing, and following 1 and 3 weeks of rapid pacing. Previous studies have shown that 1 week of rapid atrial pacing represents an early timepoint in the development of heart failure in which cardiac dilation is evident, but there is no significant effect on left ventricular (LV) systolic function. Two pigs were dosed with the MMP-inhibitor 2-(4'-bromobiphenyl-4-sulfonylamino)-3-methylbutyric acid (Compound A) (20 mg/kg/day) which was given once a day orally. This dosage was selected based upon pharmacokinetic data in which this dosage regimen would provide minimal steady state plasma levels of 10 μM Compound A. One pig dosed with Compound A was sacrificed at the end of 1 week of pacing, and the second pig was paced for a full 3 weeks. At the end of 3 weeks, pigs were euthanized and the heart removed. Cardiac myocytes were isolated from a portion of the left ventricle to measure changes in cell length.
(§1) MMP-Inhibitor efficacy in treating heart failure was defined as stopping cardiac dilation, preserving cardiac function, and reducing cardiac myocyte lengthening. Cardiac dilation was assessed by measuring changes in the end-diastolic dimension between the left ventricular free wall and left ventricular septum. Cardiac function was also measured using m-mode echocardiography by calculating the percent fraction shortening, or in other words, how well the left ventricle of the heart pumped blood into the circulation. Cellular remodelling was measured by isolating cardiac myocytes using a standard collagenase digestion procedure and measuring cell length using digital photomicroscopy. To confirm plasma drug levels of the MMP-inhibitor, plasma was collected prior to dosing on each day of the pacing protocol.

[3] = plasma levels of Compound A in MI-rat; assay type: in vivo; conditions: po, read-out: Plasma Level
gelatinases = experiment: plasma MMP inhibitory activity (thiopeptolide hydrolysis), gelatinases; assay type: biochemical; conditions: plasma after 10 mg/kg oral administration
Description: (§2) The MMP inhibitor chosen for these studies was Compound A as above. A single oral dose of 10 mg/kg of Compound A was administered in one pig, and a second pig was simultaneously administered a single 10 mg/kg dose of the MMP inhibitor intravenously. Plasma samples were serially collected from the chronically placed arterial access ports. Plasma levels of the MMP inhibitor were determined by the degree of hydrolysis of the MMP substrate thiopeptolide Ac-Pro-Leu-Gly-thioester-Leu-Leu-Gly=OEt. […] A pharmacokinetic profile was constructed using these initial data, and it was predicted that an oral delivery of 20 mg/kg/day of Compound A would provide significant MMP plasma inhibitory activity at trough levels. Accordingly, the 3 pigs underwent 20 mg/kg QD-AM of treatment with Compound A for 5 days. In order to confirm adequate MMP inhibitory activity, plasma was collected prior to the AM dose with each day of treatment. […] Thus, a practical dosing regiment of Compound A was established which provided stable plasma MMP inhibitory activity in the animal model to be used in the present study.

MMP = MMP inhibitory activity of plasma from treated pigs, artificial MMP substrate; assay type: biochemical
Description: as §2

in vivo = experiment: in vivo; parameters: species or system Yorkshire pigs; conditions: pig, po, 10 mg/kg
Description: In a similar study, three Yorkshire pigs (22-25 kg, male, Hambone Farms, S.C.) were chronically instrumented in order to measure arterial blood pressure in the conscious state. The pigs were anesthetized with isoflurane (3%/1.5 L/min) and a mixture of nitrous oxide and oxygen (50:50), intubated with a cuffed endotracheal tube and ventilated at a flow rate of 22 mL/kg/minute, and a respiratory rate of 15/minute. A left thoracotomy was performed, and the thoracic aorta at the location of the hemi-azygous crossover exposed. A catheter connected to a vascular process port (Model GPV, 9F, Access Technologies, Skokie, Ill.) was placed in the aorta and sutured in place. The access port was buried in a subcutaneous pocket over the thoracolumbar fascia. Following a recovery period of 7 to 10 days, the animal was returned to the laboratory for baseline studies. […] The vascular access port was entered using a 12-gauge Huber needle (Access Technologies, Skokie, Ill.) and basal, resting arterial pressure and heart rate were recorded. […]
The MMP inhibitor chosen for these studies was Compound A as above. […] Plasma levels of the MMP inhibitor were determined by the degree of hydrolysis of the MMP substrate thiopeptolide Ac-Pro-Leu-Gly-thioester-Leu-Leu-Gly=OEt. […]

cardiac myocytes = experiment: cardiac myocyte length after pacing, first study; assay type: in vivo, pig
Description: A study was performed in four pigs in which atrial pacemakers were implanted. Heart failure was induced by chronic rapid pacing (i.e., increasing heart rate to 240 beats per minute). Echocardiographic assessment of cardiac function, chamber dimensions, and structure was performed prior to the initiation of pacing, and following 1 and 3 weeks of rapid pacing. Previous studies have shown that 1 week of rapid atrial pacing represents an early timepoint in the development of heart failure in which cardiac dilation is evident, but there is no significant effect on left ventricular (LV) systolic function. […]
as §1, with “To confirm plasma drug levels of the MMP-inhibitor, plasma was collected prior to dosing on each day of the pacing protocol.” left out

[4] = 20 mg/kg/day oral, paced 7 days
[5] = 20 mg/kg/day oral, paced 21 days
[6] = Paced + Compound A group, baseline

SMILES: CC(C)C(NS(=O)(=O)c1ccc(-c2ccc(Br)cc2)cc1)C(=O)O (stereo not drawn) [Compound A, 2-(4'-bromobiphenyl-4-sulfonylamino)-3-methylbutyric acid]
- Norepinephrine (plasma neurohormones): 1073 ± 241 pg/mL
- Renin Activity (plasma neurohormones): 10.4 ± 1.1 ng/mL/h
- LVEDP ([1]; 0.005 mg/kg/day in chow): 20 ± 4 mm Hg
- LVV at LVEDP ([1]; 0.005 mg/kg/day in chow): 650 ± 96
- dp/dt MAX ([1]; 0.005 mg/kg/day in chow): 5900 ± 474 mm Hg/sec
- LVEDP ([1]; 0.05 mg/kg/day in chow): 16 ± 3 mm Hg
- LVV at LVEDP ([1]; 0.05 mg/kg/day in chow): 622 ± 72
- dp/dt MAX ([1]; 0.05 mg/kg/day in chow): 6553 ± 331 mm Hg/sec
- LVEDP ([1]; 0.5 mg/kg/day in chow): 20 ± 3 mm Hg
- LVV at LVEDP ([1]; 0.5 mg/kg/day in chow): 751 ± 65
- dp/dt MAX ([1]; 0.5 mg/kg/day in chow): 5997 ± 351 mm Hg/sec
- LVEDP ([1]; 5 mg/kg/day in chow): 16 ± 3 mm Hg
- LVV at LVEDP ([1]; 5 mg/kg/day in chow): 647 ± 66
- dp/dt MAX ([1]; 5 mg/kg/day in chow): 6357 mm Hg/sec
- LV function as measured by dP/dt MAX ([1]; 3 highest doses): significantly improved LV function
- LV dilation ([1]; every dose (0.005-5 mg/kg/day in chow)): significantly reduced LV dilation at every dose
- inhibition of MMPs at trough level (MMPs): a level great enough to inhibit all MMPs tested
- End-Diastolic Dimension [2, 4]: 3.6 ± 0.2 cm
- Fractional Shortening [2, 4]: 33 ± 3%
- Heart Rate [2, 4]: 120 ± 3 BPM
- LV Stress [2, 4]: 50 ± 4 g/cm2
- End-Diastolic Dimension [2, 5]: 4.3 cm
- Fractional Shortening [2, 5]: 22%
- decrease in cardiac function (fractional shortening) ([2]; 3 weeks of pacing): 39%
- increase in cardiac dilation (left ventricular end-diastolic dimension) ([2]; 3 weeks of pacing): 26%
- End-Diastolic Dimension [2, 6]: 3.4 ± 0.2 cm
- Fractional Shortening [2, 6]: 36 ± 3%
- Heart Rate [2, 6]: 105 ± 4 BPM
- LV Stress [2, 6]: 46 ± 3 g/cm2
- left ventricular end-diastolic volume versus control values ([2]; first week of pacing): remained unchanged from control values
- left ventricular wall stress versus control values ([2]; first week of pacing): remained unchanged from control values
- fractional shortening, change ([2]; following 1 week of pacing): unchanged
- concentration at 1008 h ([3]; 0.005 mg/kg/day in chow): 2 ± 1 µM
- concentration at 1008 h ([3]; 0.05 mg/kg/day in chow): 16 ± 4 µM
- concentration at 1008 h ([3]; 0.5 mg/kg/day in chow): 55 ± 3 µM
- concentration at 1008 h ([3]; 5 mg/kg/day in chow): 201 ± 7 µM
- reduction in activity against the gelatinases (gelatinases): ~50%
- plasma MMP inhibitory activity (MMP; pig, 20 mg/kg QD for 5 days, pre-dose plasma): significant plasma MMP inhibitory activity was observed
- reduction of in vitro MMP activity by plasma (MMP; plasma after 3 days of treatment, 20 mg/kg QD, artificial MMP substrate): over 100%
- bioavailability at 4 h (in vivo): ~100%
- Cardiac Myocyte Length (cardiac myocytes; [5]): 170 μms
- increase in cardiac myocyte cell length (cardiac myocytes; 3 weeks of pacing): 19%

Reference: US5948780A, “Method for treating and preventing heart failure and ventricular dilatation” (priority 1997, dated 1999)
